Where two headings read alike, the source gives them in different places.
Experiments:
[1] = tested on: β-actin; experiment: β-actin expression after CDDO; conditions: 5 μM
Experimental: (§3) Immunoblot analysis: Cells were lysed in ice-cold lysis buffer (20 mM Tris-HCl, pH 8.0, 150 mM NaCl, 1% Triton-X-100, 1 mM phenylsulfonyl fluoride, 1 mM DTT, 10 μgm/ml aprotinin) for 30 min. Lysates were cleared by centrifugation for 20 min. at 4° C. as described (Yin et al, 2001). Proteins were separated by SDS-PAGE, transferred to nitrocellulose and probed with anti-DF3/MUC1 (Kufe, U.S. Pat. No. 5,506,34) or anti-β-actin (Sigma). The antigen-antibody complexes were visualized by enhanced chemiluminescence (ECL; Amersham Life Sciences).

[2] = tested on: intracellular ROS; conditions: MCF-7 cells, compared to control
Experimental: Measurement of ROS levels: Cells were incubated with 10 mM DCF-DA Sigma) for 15 min. at 37° C. to assess ROS-mediated oxidation of the fluorescent compound DCF (LeBel et al., 1992). Fluorescence of oxidized DCF was measured at an excitation wavelength of 480 nm and an emission wavelength of 525 nm using a flow cytometer (Beckton Dickerson, Lincoln Park, N.J.).
As a control, cells were incubated with NAC, a scavenger of ROS.

[3] = tested on: MUC1; conditions: MUC1-positive cells
Experimental: Cell Culture: Human MCF-7 breast carcinoma and HeLa cervical carcinoma cella (obtained form the ATCC, Manassas, Va.) were grown in DMEM (high glucose; Mediatech, Cellgrow) supplemented with 10% heat-inactivated fetal calf serum (FCS) and 2 mM L-glutamate.
as §3
CDDO downregulates MUC1 expression: MUC1-positive cells were treated with CDDO at concentrations of 1, 3 and 5 μM.

[4] = tested on: MUC1 transcripts; conditions: MCF-7 cells
Experimental: Reverse transcription-polymerase chain reaction (RT-PCR): Total cellular RNA was extracted in Triazol, dissolved in RNAase-free water and incubated for 10 min. at 55° C. MUC1-specific primers (5′-[sequence]-3′ and 3′-[sequence]-5′) were designed to span a region within the genomic DNA that contains two introns and result in amplification of a 489-bp fragment from RNA and a 783-bp fragment from genomic DNA. RNA-specific primers for human β-actin were used as a control. The RNA was reverse transcribed and amplified using SuperScript One-Step RT-PCR with Platinum Taq (GIBCO-BRL Gaithersburg, Md.). Amplified fragments were analyzed by electrophoresis in 2% agarose gels.
To determine whether MUC1 expression is decreased at the mRNA level , RT-PCR was performed on MCF-7 cells treated with CDDO and the derivatives. […] Whereas CDDO induces apoptosis of diverse cell types, we assessed viability of MCF-7 cells under the same experimental conditions.

[5] = tested on: MUC1 C-ter; experiment: Expression of MUC1 C-ter with CHX; type: cell-based, human
[6] = tested on: HCT116 cells; experiment: Apoptosis (sub-G1 DNA, TUNEL) in HCT116 transfectants; type: cell-based, human; conditions: FIG. 15
Experimental: Methods. Apoptotic cells were quantified by analysis of sub-G1 DNA and TUNEL staining. To assess sub-G1 DNA content, cells were harvested, washed with PBS, fixed with 80% ethanol, and incubated in PBS containing 20 ng/ml RNase (Roche) for 60 min at 37° C. Cells were then stained with […] propidium iodide (Sigma) for 30 min at room temperature in the dark. DNA content was analyzed by flow cytometry (EPICS XL-MCL, Coulter Corp.). Apoptotic cells with DNA fragmentation were detected by staining with the In Situ cell death detection kit (TUNEL; Roche Applied Science) and visualized by confocal microscopy (ZEISS LSM510). After staining, cells were analyzed by flow cytometry. Other experimental procedures and methods were as described in Example 15.
Results. To determine if MUC1 affects the induction of apoptosis by CDDP, cells were analyzed for sub-G1 DNA content. […] Stimulation of cell surface death receptors with TNF-α or the TNF-related apoptosis inducing factor TRAIL is associated with activation of the extrinsic apoptotic pathway. To determine if MUC1 affects death receptor-induced apoptosis, HCT116 cells were treated with TNF-α.

[7] = tested on: intrinsic apoptotic pathway; experiment: Release of mitochondrial factors and caspase-3 activation in HCT116 transfectants; type: cell-based, human
Experimental: Methods. Experimental procedures and methods were as described in Example 15.
(§1) Results. Treatment of cells with DNA-damaging agents is associated with release of mitochondrial cytochrome c and activation of the intrinsic apoptotic pathway. To determine if mitochondrial localization of the MUC1 C-ter affects cytochrome c release, the HCT116 transfectants were treated with cisplatin (CDDP). […] Release of cytochrome c in the response to genotoxic stress is associated with activation of caspase-3 and cleavage of PKCδ (Emoto et al., 1995). To assess the effects of MUC1 on caspase-3 activation, CDDP-treated cells were analyzed for cleavage of pro-caspase-3. […] Smac/DIABLO is a mitochondrial protein that induces caspase-dependent cell death by interacting with inhibitor of apoptosis proteins (IAPs) and blocking their caspase inhibitory activity (Du et al., 2000; Verhagen et al., 2000). To determine if MUC1 attenuates release of Smac/DIABLO, HCT116/vector, HCT116/MUC1 and HCT116/MUC(Y46F) cells were treated with CDDP for 24, 48 and 72 h, and cytosolic lysates were subjected to immunoblot analysis. […] CDDP treatment of HCT116/vector and HCT116/MUC1(Y46F) cells for 72 h was associated with>90% cell death and decreases in the β-actin signals used as a control for loading. By contrast, treatment of HCT116/MUC1 cells with CDDP for 72 h was associated with cessation of cell growth and<30% cell death. These findings indicate that mitochondrial localization of MUC1 C-ter attenuates DNA damage-induced activation of the intrinsic apoptotic pathway.

[8] = tested on: ZR-75-1 breast carcinoma cells; experiment: Apoptosis assay (sub-G1 DNA) in ZR-75-1 cells; type: cell-based, human
Experimental: Apoptosis assay: Apoptotic cells were quantified by analysis of sub-G1 DNA. Cells were harvested, washed with PBS, fixed with 80% ethanol, and incubated in PBS containing 20 ng/ml RNase (Roche) for 60 min at 37° C. Cells were stained with 40 μg/ml propidium iodide (Sigma) for 30 min at room temperature in the dark. DNA content was analyzed by flow cytometry (EPICS XL-MCL, Coulter Corp.).
(§2) As a control, stable transfection of ZR-75-1 cells with the empty reterovirus had no effect on MUC1 expression. […] By contrast, CDDP treatment of ZR-75-1/MUC1siRNA cells was associated with a clear loss of ΔΨm. In concert with these findings, cytochrome C release, as measured by immunoblot, was attenuated in CDDP-treated ZR-75-1/vector cells, as compared to ZR-75-1/MUC1siRNA cells. […] Treatment of ZR-75-1/vector cells with CDDP was associated with the induction of approximately 25% apoptosis.

[9] = tested on: ZR-75-1 tumors; experiment: ZR-75-1 tumor growth in nude mice; type: in vivo; conditions: 7 mg/Kg CDDP intraperitoneal, FIG. 12
Experimental: FIG. 12: Summary of data showing that MUC1 confers resistance to CDDP in vivo. ZR-75-1/vector cells (∘, ●) or ZR-75-1/MUC1siRNA (¤, ▪) cells (1×10^7) were injected into nude mice that had been pretreated with β-estradiol. The mice were treated as indicated (arrows) with intraperitoneal injections of PBS (¤, ∘) or 7 mg/Kg CDDP (●, ▪). The results are expressed as the tumor volume (mean±S.D>of 4-8 mice per group.
To determine if knocking-down MUC1 affects chemosensitivity in vivo, mice were injected with ZR-75-1 cells stably expressing the empty viral vector or MUCsiRNA.

[10] = tested on: HCT116 cells; experiment: Cell death of HCT116 transfectants; type: cell-based, human; conditions: 72 h
Experimental: as §1, with “These findings indicate that mitochondrial localization of MUC1 C-ter attenuates DNA damage-induced activation of the intrinsic apoptotic pathway.” left out

[11] = tested on: MUC1; experiment: MUC1 induction by oxidative and genotoxic stress (immunoblot); conditions: available evidence; cells not given
Experimental: To determine whether MUC1 is induced in response to oxidative stress, MCF-7 cells were treated with hydrogen peroxide. Cell lysates were analyzed by immunoblotting with anti-DF3/MUC1 antibody. Lysates were prepared by suspending MCF-7 cells in lysis buffer (50 mM Tris, pH 7.6, 150 mM NaCl, 1 mM PMSF, 3 mM NaF, 1 mM sodium vandate, 1 mM DTT with protease inhibitors and either 1% NP-40 or 1% Brij-96) for 30 min. on ice. Lysates were cleared by centifugation and equal amounts of proteins were resolved by SDS-PAGE. Proteins were then transferred to nitrocellulose filters, blocked by incubation in 5% non-fat dry milk in PBS with 0.05% Tween-20 and probed with anti-MUC1 antibody (Pandey et al., 1995). Anti-actin was used as a control.
Similar studies were performed with genotoxic agents.

[12] = tested on: cytochrome c release; experiment: Cytochrome c release (immunoblot) in ZR-75-1 cells; type: cell-based, human; conditions: ZR-75-1/vector cells compared to ZR-75-1/MUC1siRNA cells
Experimental: Immunoblot analysis: Lysates were prepared from cells as described (Li et al., 2001]. Equal amounts of protein were separated by SDS-PAGE and transferred with anti-cytochrome c (BD PharMingen, San Diego, Calif.). The immunocomplexes were detected with horseradish peroxidase-conjugated secondary antibodies and enhanced chemiluminescence (ECL, Amersham Biosciences, Piscataway, N.J.). Intensity of the signals was determined by densiometric scanning.
as §2

[13] = tested on: ZR-75-1 breast carcinoma cells; experiment: Mitochondrial transmembrane potential in ZR-75-1 cells; type: cell-based, human
Experimental: Analysis of mitochondrial transmembrane potential: Cells were incubated with 0.5 nM 3,3-dihexyloxocarbocyanine iodide (DiOC6[3]; Molecular Probes) for 30 min and analyzed by flow cytometry as described (Shapiro, 2000).
as §2

[14] = tested on: MUC1 C-ter; experiment: Mitochondrial localization of MUC1 C-ter (immunoblot of mitochondrial fractions); type: cell-based, human; conditions: HCT116/MUC1 or HCT116/MUC1(Y46F) cells; EGF 10 ng/ml
Experimental: Cell culture. Human HCT116 colon carcinoma cells (ATCC, Manassas, Va.) were cultured in Dulbecco's modified Eagle's medium/F12 with 10% heat-inactivated fetal bovine serum, 100 units/ml penicillin, […] streptomycin and 2 mM L-glutamine.
Cell transfections. HCT116 cells were transfected with pIRES-puro2, pIRESpuro2-MUC1 or pIRES-puro2-MUC1(Y46F) as described (Li et al., 2001a). SW480 cells were transfected with pIRES-puro2 or pIRES-puro2-MUC1. Stable transfectants were selected in the presence of 0.4 mg/ml puromycin (Calbiochem-Novabiochem, San Diego, Calif.). Two independent transfections were performed for each vector.
Immunoblot analysis. Lysates were prepared from subconfluent cells as described (Li et al., 2001a). Equal amounts of protein were separated by SDS-PAGE and transferred to nitrocellulose membranes. […] The immunocomplexes were detected with horseradish peroxidase-conjugated secondary antibodies and enhanced chemiluminescence (ECL, Amersham Biosciences, Piscataway, N.J.). Intensity of the signals was determined by densitometric scanning. […]
To extend these findings, MUC1 C-ter was expressed with a GFP tag at the N-terminus and assessed mitochondrial localization. […]

Q: Which β-actin gene expression [1] does the source give for `CC1(C)CC[C@]2(C(=O)O)CC[C@]3(C)[C@H](C(=O)C=C4[C@@]5(C)C=C(C#N)C(=O)C(C)(C)[C@@H]5CC[C@]43C)[C@@H]2C1` [CDDO] here?
A: The β-actin gene expression was “no apparent effect”.

Q: What about the “ROS (oxidation of DCF)” value [2] of the same compound?
A: Its value is “detectable increases”.

Q: What about the “MUC1 protein (immunoblot)” value ([3]; 5 μM) of the same compound?
A: The value was “decreased levels”.

Q: And the “MUC1 protein (immunoblot)” value ([3]; 1 or 3 μM at 24 hr)?
A: Its value is “little if any effect”.

Q: What about the “MUC1 transcripts (RT-PCR)” value [4] of the same compound?
A: The value was “decrease”.

Q: Which “expression of MUC1 C-ter” value [5] does the source give for `C[C@@H]1C[C@@H]([C@H](O)CC2CC(=O)NC(=O)C2)C(=O)[C@@H](C)C1` [CHX, cycloheximide] here?
A: The value was “no apparent effect”.

Q: What does the source list for `[NH2][Pt]([NH2])([Cl])[Cl]` [CDDP, cisplatin]?
A: attenuation of CDDP-induced apoptosis ([6]; HCT116/MUC1(Y46F) cells): not; CDDP-induced apoptosis ([6]; HCT116/MUC1 cells): attenuated; apoptosis (sub-G1 DNA) ([6]; HCT116/vector cells, 100 μM CDDP for 24 h): approximately 40%; release of Smac/DIABLO ([7]; 24, 48 and 72 h, HCT116/MUC1 compared to HCT116/vector and HCT116/MUC1(Y46F) cells): attenuated; CDDP-induced cytochrome c release ([7]; HCT116/MUC1(Y46F) cells): ineffective in blocking; release of cytochrome c ([7]; HCT116/MUC1 cells): significantly attenuated; caspase-3-mediated cleavage of PKCδ ([7]; HCT116/MUC1 compared to HCT116/vector and HCT116/MUC1(Y46F) cells): attenuated; CDDP-induced activation of caspase-3 ([7]; HCT116/MUC1 compared to HCT116/vector cells): attenuates; release of apoptosis-inducing factor (AIF) ([7]; HCT116/MUC1 compared to vector or MUC1(Y46F) cells): attenuated release; cytosolic cytochrome c ([7]; HCT116/vector cells): increased levels; apoptosis ([8]; ZR-75-1/MUC1siRNA cells): over 60%; apoptosis ([8]; ZR-75-1/vector cells): approximately 25%; sensitivity of tumors to treatment ([9]; ZR-75-1/MUC1siRNA tumors): considerably more sensitive; tumor growth ([9]; ZR-75-1/vector tumors): partial slowing; cell death ([10]; HCT116/MUC1 cells): < 30%; cell death ([10]; HCT116/vector and HCT116/MUC1(Y46F) cells): > 90%; MUC1 induction by diverse cytotoxic agents [11]: induced; cytochrome C release (immunoblot) [12]: attenuated; mitochondrial transmembrane potential (ΔΨm) ([13]; ZR-75-1/MUC1siRNA cells): clear loss; mitochondrial transmembrane potential (ΔΨm) ([13]; ZR-75-1/vector cells): little if any decrease

Q: With “EGF: EGF (10 ng/ml; Calbiochem-Novabiochem)” as the compound, how does the “mitochondrial targeting of MUC1 C-ter” value [14] read?
A: Its value is “little effect”.
